ChEMBL document CHEMBL5537135, “Novel antimicrobial peptides modified with fluorinated sulfono-γ-AA having high stability and targeting multidrug-resistant bacteria infections” (Eur J Med Chem, 2024)
≈ marks a conversion by molar mass, not a printed value. Numbered stars: 1 amine (or outer) side, 2 acyl side, 3 side chain; on linkers, the order of the positions; unused ones are H or OH. Square brackets hold non-standard residues; d marks the D form. Peptide text beside a SMILES is read from it. * marks the point of attachment. X5 = NC(=O)CN(C[C@H](Cc1ccccc1)N*)S(=O)(=O)c1ccc(C(F)(F)F)cc1; X4 = N[C@@H](Cc1ccccc1)CN(CC(=O)[*:2])[*:1]; X1 = O=S(=O)(c1ccc(C(F)(F)F)cc1)*

Legend:
Staphylococcus aureus [1] = assay: Antimicrobial activity against Staphylococcus aureus ATCC 25923 assessed as fold change in MIC in presence of salt solution; assay type: functional
Salmonella typhimurium = assay: Antimicrobial activity against Salmonella typhimurium ATCC 14028 assessed as inhibition of visible bacterial growth incubated for 18 hrs by broth-dilution method; assay type: functional, Salmonella enterica subsp. enterica serovar Typhimurium; conditions: Salmonella enterica
Staphylococcus aureus [2] = assay: Antimicrobial activity against Staphylococcus aureus ATCC 25923 assessed as reduction in bacterial growth in presence of Ca2+; assay type: functional
Pseudomonas aeruginosa [3] = assay: Antimicrobial activity against Pseudomonas aeruginosa ATCC 27853 assessed as inhibition of visible bacterial growth incubated for 18 hrs by broth-dilution method; assay type: functional
Acinetobacter baumannii = assay: Antimicrobial activity against Acinetobacter baumannii ATCC 19606 assessed as inhibition of visible bacterial growth incubated for 18 hrs by broth-dilution method; assay type: functional
[4] = Stability in human serum assessed as half life measured for 5 hrs by RP-HPLC analysis; assay type: ADME, cell-free
Erythrocyte = assay: Hemolytic activity against mouse Red blood cell incubated for 1 hr; assay type: toxicity, cell-based
Staphylococcus aureus [5] = assay: Antimicrobial activity against methicillin-resistant Staphylococcus aureus ATCC 33591 assessed as inhibition of visible bacterial growth incubated for 18 hrs by broth-dilution method; assay type: functional
Staphylococcus aureus [6] = assay: Antimicrobial activity against Staphylococcus aureus ATCC 25923 assessed as inhibition of visible bacterial growth incubated for 18 hrs by broth-dilution method; assay type: functional
Escherichia coli = assay: Antimicrobial activity against Escherichia coli ATCC 25922 assessed as inhibition of visible bacterial growth incubated for 18 hrs by broth-dilution method; assay type: functional
Bacillus subtilis = assay: Antimicrobial activity against Bacillus subtilis ATCC 23857 assessed as inhibition of visible bacterial growth incubated for 18 hrs by broth-dilution method; assay type: functional
[7] = test system: Staphylococcus epidermidis; assay: Antimicrobial activity against Staphylococcus epidermidis ATCC 12228 assessed as inhibition of visible bacterial growth incubated for 18 hrs by broth-dilution method; assay type: functional
Pseudomonas aeruginosa [8] = assay: Antibacterial activity against antibiotics-resistant Pseudomonas aeruginosa […] assessed as reduction in microbial growth; assay type: functional
Pseudomonas aeruginosa [9] = assay: Antimicrobial activity against multidrug-resistant Pseudomonas aeruginosa 050 assessed as inhibition of visible bacterial growth incubated for 18 hrs by broth-dilution method; assay type: functional
Pseudomonas aeruginosa [10] = assay: Antimicrobial activity against multidrug-resistant Pseudomonas aeruginosa 157 assessed as inhibition of visible bacterial growth incubated for 18 hrs by broth-dilution method; assay type: functional
Staphylococcus aureus [11] = assay: Antibacterial activity against antibiotics-resistant Staphylococcus aureus ATCC 33591 assessed as reduction in microbial growth; assay type: functional
Pseudomonas aeruginosa [12] = assay: Antimicrobial activity against multidrug-resistant Pseudomonas aeruginosa 061 assessed as inhibition of visible bacterial growth incubated for 18 hrs by broth-dilution method; assay type: functional
Pseudomonas aeruginosa [13] = assay: Antimicrobial activity against multidrug-resistant Pseudomonas aeruginosa 124 assessed as inhibition of visible bacterial growth incubated for 18 hrs by broth-dilution method; assay type: functional
Pseudomonas aeruginosa [14] = assay: Antimicrobial activity against multidrug-resistant Pseudomonas aeruginosa 119 assessed as inhibition of visible bacterial growth incubated for 18 hrs by broth-dilution method; assay type: functional
Pseudomonas aeruginosa [15] = assay: Antimicrobial activity against multidrug-resistant Pseudomonas aeruginosa 156 assessed as inhibition of visible bacterial growth incubated for 18 hrs by broth-dilution method; assay type: functional
Pseudomonas aeruginosa [16] = assay: Antimicrobial activity against multidrug-resistant Pseudomonas aeruginosa 125 assessed as inhibition of visible bacterial growth incubated for 18 hrs by broth-dilution method; assay type: functional
Pseudomonas aeruginosa [17] = assay: Antimicrobial activity against multidrug-resistant Pseudomonas aeruginosa 085 assessed as inhibition of visible bacterial growth incubated for 18 hrs by broth-dilution method; assay type: functional
Staphylococcus aureus [18] = assay: Antimicrobial activity against methicillin-resistant Staphylococcus aureus 7 assessed as inhibition of visible bacterial growth incubated for 18 hrs by broth-dilution method; assay type: functional
Staphylococcus aureus [19] = assay: Antimicrobial activity against methicillin-resistant Staphylococcus aureus 6 assessed as inhibition of visible bacterial growth incubated for 18 hrs by broth-dilution method; assay type: functional
Staphylococcus aureus [20] = assay: Antimicrobial activity against methicillin-resistant Staphylococcus aureus 4 assessed as inhibition of visible bacterial growth incubated for 18 hrs by broth-dilution method; assay type: functional
Pseudomonas aeruginosa [21] = assay: Antimicrobial activity against multidrug-resistant Pseudomonas aeruginosa 516 assessed as inhibition of visible bacterial growth incubated for 18 hrs by broth-dilution method; assay type: functional
Staphylococcus aureus [22] = assay: Antimicrobial activity against methicillin-resistant Staphylococcus aureus 1 assessed as inhibition of visible bacterial growth incubated for 18 hrs by broth-dilution method; assay type: functional
Pseudomonas aeruginosa [23] = assay: Antimicrobial activity against multidrug-resistant Pseudomonas aeruginosa 073 assessed as inhibition of visible bacterial growth incubated for 18 hrs by broth-dilution method; assay type: functional
Staphylococcus aureus [24] = assay: Antimicrobial activity against methicillin-resistant Staphylococcus aureus 5 assessed as inhibition of visible bacterial growth incubated for 18 hrs by broth-dilution method; assay type: functional
Staphylococcus aureus [25] = assay: Antimicrobial activity against methicillin-resistant Staphylococcus aureus 10 assessed as inhibition of visible bacterial growth incubated for 18 hrs by broth-dilution method; assay type: functional
Staphylococcus aureus [26] = assay: Antimicrobial activity against methicillin-resistant Staphylococcus aureus 8 assessed as inhibition of visible bacterial growth incubated for 18 hrs by broth-dilution method; assay type: functional
Staphylococcus aureus [27] = assay: Antimicrobial activity against methicillin-resistant Staphylococcus aureus 2 assessed as inhibition of visible bacterial growth incubated for 18 hrs by broth-dilution method; assay type: functional
Staphylococcus aureus [28] = assay: Antimicrobial activity against methicillin-resistant Staphylococcus aureus 9 assessed as inhibition of visible bacterial growth incubated for 18 hrs by broth-dilution method; assay type: functional
Staphylococcus aureus [29] = assay: Antimicrobial activity against methicillin-resistant Staphylococcus aureus 3 assessed as inhibition of visible bacterial growth incubated for 18 hrs by broth-dilution method; assay type: functional

Compound | MIC (Salmonella typhimurium) | MIC (Pseudomonas aeruginosa [3]) | MIC (Acinetobacter baumannii) | half-life [4] | MHC (Erythrocyte) | MIC (Staphylococcus aureus [5]) | MIC (Staphylococcus aureus [6]) | MIC (Escherichia coli) | MIC (Bacillus subtilis) | MIC [7] | MIC (Pseudomonas aeruginosa [9]) | MIC (Pseudomonas aeruginosa [10]) | MIC (Pseudomonas aeruginosa [12]) | MIC (Pseudomonas aeruginosa [13]) | MIC (Pseudomonas aeruginosa [14]) | MIC (Pseudomonas aeruginosa [15]) | MIC (Pseudomonas aeruginosa [16]) | MIC (Pseudomonas aeruginosa [17]) | MIC (Staphylococcus aureus [18]) | MIC (Staphylococcus aureus [19]) | also measured
CC(C)C[C@H](NC(=O)[C@H](CC(C)C)NC(=O)[C@H](CCCCN)NC(=O)[C@H](CCCCN)NC(=O)[C@H](CC(C)C)NC(=O)[C@H](CC(C)C)NC(=O)[C@H](CCCCN)NC(=O)CN(C[C@@H](N)Cc1ccccc1)S(=O)(=O)c1ccc(C(F)(F)F)cc1)C(N)=O (X1-[X4]KLLKKLL-NH2) | 8 µg/mL (≈ 6.39 µM) | 8 µg/mL (≈ 6.39 µM) | 16 µg/mL (≈ 12.8 µM) | 7.96 h | 32 µg/mL | 4 µg/mL (≈ 3.19 µM) | 8 µg/mL (≈ 6.39 µM) | 8 µg/mL (≈ 6.39 µM) | 4 µg/mL (≈ 3.19 µM) | 4 µg/mL (≈ 3.19 µM) | – | – | – | – | – | – | – | – | – | – | fold change (FC) (Staphylococcus aureus [1]): 0.25; MIC (Staphylococcus aureus [2]): 32 µg/mL
C[C@H]1[C@H](NC(=O)/C(=N\OC(C)(C)C(=O)O)c2csc(N)n2)C(=O)N1S(=O)(=O)O [AZTREONAM] | – | – | – | – | – | – | – | – | – | – | 8 µg/mL (≈ 18.4 µM) | 8 µg/mL (≈ 18.4 µM) | 256 µg/mL (≈ 588 µM) | 4 µg/mL (≈ 9.19 µM) | 8 µg/mL (≈ 18.4 µM) | 256 µg/mL (≈ 588 µM) | 8 µg/mL (≈ 18.4 µM) | 8 µg/mL (≈ 18.4 µM) | – | – | MIC (Pseudomonas aeruginosa [8]): 32 µg/mL; MIC (Staphylococcus aureus [11]): 32 µg/mL
H-FLKLLKKLL-NH2 | 16 µg/mL | 8 µg/mL | 16 µg/mL | 1.09 h | 256 µg/mL | 16 µg/mL | 16 µg/mL | 32 µg/mL | 4 µg/mL | 16 µg/mL | 8 µg/mL | 8 µg/mL | 8 µg/mL | 8 µg/mL | 4 µg/mL | 8 µg/mL | 8 µg/mL | 8 µg/mL | 4 µg/mL | 8 µg/mL | MIC (Staphylococcus aureus [20]): 8 µg/mL; MIC (Pseudomonas aeruginosa [21]): 8 µg/mL; MIC (Staphylococcus aureus [22]): 4 µg/mL; MIC (Pseudomonas aeruginosa [23]): 8 µg/mL; MIC (Staphylococcus aureus [24]): 8 µg/mL; MIC (Staphylococcus aureus [25]): 4 µg/mL; MIC (Staphylococcus aureus [26]): 8 µg/mL; MIC (Staphylococcus aureus [27]): 8 µg/mL; MIC (Staphylococcus aureus [28]): 4 µg/mL; MIC (Staphylococcus aureus [29]): 4 µg/mL
CC1(C)S[C@@H]2[C@H](NC(=O)[C@H](N)c3ccc(O)cc3)C(=O)N2[C@H]1C(=O)O [AMOXICILLIN] | 256 µg/mL (≈ 701 µM) | 256 µg/mL (≈ 701 µM) | 128 µg/mL (≈ 350 µM) | – | – | 128 µg/mL (≈ 350 µM) | 1 µg/mL (≈ 2.74 µM) | 4 µg/mL (≈ 10.9 µM) | 256 µg/mL (≈ 701 µM) | 256 µg/mL (≈ 701 µM) | – | – | – | – | – | – | – | – | 16 µg/mL (≈ 43.8 µM) | 32 µg/mL (≈ 87.6 µM) | MIC (Staphylococcus aureus [20]): 8 µg/mL (≈ 21.9 µM); MIC (Staphylococcus aureus [22]): 4 µg/mL (≈ 10.9 µM); MIC (Staphylococcus aureus [24]): 32 µg/mL (≈ 87.6 µM); MIC (Staphylococcus aureus [25]): 32 µg/mL (≈ 87.6 µM); MIC (Staphylococcus aureus [26]): 4 µg/mL (≈ 10.9 µM); MIC (Staphylococcus aureus [27]): 4 µg/mL (≈ 10.9 µM); MIC (Staphylococcus aureus [28]): 8 µg/mL (≈ 21.9 µM); MIC (Staphylococcus aureus [29]): 4 µg/mL (≈ 10.9 µM)
C[C@@H](O)[C@H]1C(=O)N2C(C(=O)O)=C(SCCNC=N)C[C@H]12 [IMIPENEM ANHYDROUS] | 1 µg/mL (≈ 3.34 µM) | 2 µg/mL (≈ 6.68 µM) | 1 µg/mL (≈ 3.34 µM) | – | – | 32 µg/mL (≈ 107 µM) | 1 µg/mL (≈ 3.34 µM) | 1 µg/mL (≈ 3.34 µM) | 1 µg/mL (≈ 3.34 µM) | 1 µg/mL (≈ 3.34 µM) | 8 µg/mL (≈ 26.7 µM) | 2 µg/mL (≈ 6.68 µM) | 2 µg/mL (≈ 6.68 µM) | 4 µg/mL (≈ 13.4 µM) | 2 µg/mL (≈ 6.68 µM) | 4 µg/mL (≈ 13.4 µM) | 8 µg/mL (≈ 26.7 µM) | 8 µg/mL (≈ 26.7 µM) | 1 µg/mL (≈ 3.34 µM) | 1 µg/mL (≈ 3.34 µM) | MIC (Pseudomonas aeruginosa [8]): 32 µg/mL; MIC (Staphylococcus aureus [20]): 1 µg/mL (≈ 3.34 µM); MIC (Pseudomonas aeruginosa [21]): 4 µg/mL (≈ 13.4 µM); MIC (Staphylococcus aureus [11]): 32 µg/mL; MIC (Staphylococcus aureus [22]): 1 µg/mL (≈ 3.34 µM); MIC (Pseudomonas aeruginosa [23]): 4 µg/mL (≈ 13.4 µM); MIC (Staphylococcus aureus [24]): 1 µg/mL (≈ 3.34 µM); MIC (Staphylococcus aureus [25]): 1 µg/mL (≈ 3.34 µM); MIC (Staphylococcus aureus [26]): 1 µg/mL (≈ 3.34 µM); MIC (Staphylococcus aureus [27]): 1 µg/mL (≈ 3.34 µM); MIC (Staphylococcus aureus [28]): 1 µg/mL (≈ 3.34 µM); MIC (Staphylococcus aureus [29]): 1 µg/mL (≈ 3.34 µM)
CC(C)C[C@H](NC(=O)[C@H](CC(C)C)NC(=O)[C@H](CCCCN)NC(=O)[C@H](CC(C)C)NC(=O)[C@@H](N)Cc1ccccc1)C(=O)N[C@@H](CCCCN)C(=O)N[C@@H](CCCCN)C(=O)N[C@@H](Cc1ccccc1)CN(CC(N)=O)S(=O)(=O)c1ccc(C(F)(F)F)cc1 (H-FLKLLKK-X5) | 16 µg/mL (≈ 12.4 µM) | 8 µg/mL (≈ 6.22 µM) | 16 µg/mL (≈ 12.4 µM) | 2.61 h | 128 µg/mL | 8 µg/mL (≈ 6.22 µM) | 8 µg/mL (≈ 6.22 µM) | 32 µg/mL (≈ 24.9 µM) | 4 µg/mL (≈ 3.11 µM) | 4 µg/mL (≈ 3.11 µM) | – | – | – | – | – | – | – | – | – | – | fold change (FC) (Staphylococcus aureus [1]): 0.25; MIC (Staphylococcus aureus [2]): 32 µg/mL
